Test results: ChEMBL document CHEMBL1201862, “PubChem BioAssay data set” (2004)
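Following 48 hours of exposure in 96-well plates, responses at five concentrations were used to interpolate endpoints linearly. GI50: concentration for 50% inhibition of growth.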 Active and inactive are the calls of the source. Cut-off read from the data, not from the text of the source: active = GI50 up to about 1.1 µM and inactive = higher.

How the values were obtained:
Test in all cases: NCI-60 cell line screen, 48 h
786-0 = system: 786-0
A549 = system: A549
CAKI-1 = system: CAKI-1
HOP-62 = system: HOP-62
HOP-92 = system: HOP-92
HT-29 = system: HT-29
IGROV-1 = system: IGROV-1
KM12 = system: KM12
NCI-H23 = system: NCI-H23
NCI-H522 = system: NCI-H522
OVCAR-3 = system: OVCAR-3
RXF 393 = system: RXF 393
SF-295 = system: SF-295
SK-MEL-2 = system: SK-MEL-2
SK-MEL-5 = system: SK-MEL-5
SNB-19 = system: SNB-19
UACC-257 = system: UACC-257
UACC-62 = system: UACC-62
BT-549 = system: BT-549

Compound	GI50 (786-0)	GI50 (A549)	GI50 (CAKI-1)	GI50 (HOP-62)	GI50 (HOP-92)	GI50 (HT-29)	GI50 (IGROV-1)	GI50 (KM12)	GI50 (NCI-H23)	GI50 (NCI-H522)	GI50 (OVCAR-3)	GI50 (RXF 393)	GI50 (SF-295)	GI50 (SK-MEL-2)	GI50 (SK-MEL-5)	GI50 (SNB-19)	GI50 (UACC-257)	GI50 (UACC-62)	GI50 (BT-549)
O=P(c1ccccc1)(c1ccccc1)C(NCc1ccccc1)c1ccc(F)cc1 (stereo not drawn)	18.5 µM (inactive)	15 µM (inactive)	17 µM (inactive)	21.6 µM (inactive)	12.9 µM (inactive)	13.2 µM (inactive)	15.5 µM (inactive)	13.2 µM (inactive)	13.6 µM (inactive)	11.5 µM (inactive)	14.2 µM (inactive)	13.4 µM (inactive)	15.2 µM (inactive)	15 µM (inactive)	15.9 µM (inactive)	17.9 µM (inactive)	18 µM (inactive)	13 µM (inactive)	
Cc1c(/N=N/c2ccc(Cl)cc2)c(C)n(C2OC(CO)C(O)C(O)C2O)c(=S)c1C#N (stereo not drawn)	18.5 µM (inactive)	22 µM (inactive)	64.1 µM (inactive)	18.1 µM (inactive)	31.5 µM (inactive)	32.7 µM (inactive)	15.1 µM (inactive)	24.8 µM (inactive)	30 µM (inactive)	20 µM (inactive)	12.8 µM (inactive)	31.1 µM (inactive)	31.8 µM (inactive)	14.7 µM (inactive)	8.45 µM (inactive)	> 100 µM (inactive)	24.2 µM (inactive)	3.25 µM (inactive)	
CN=C(n1ccnc1)n1ccnc1	> 100 µM (inactive)	> 100 µM (inactive)	> 100 µM (inactive)			> 100 µM (inactive)	> 100 µM (inactive)	> 100 µM (inactive)	> 100 µM (inactive)	> 100 µM (inactive)	> 100 µM (inactive)	> 100 µM (inactive)		> 100 µM (inactive)	> 100 µM (inactive)	> 100 µM (inactive)	> 100 µM (inactive)	> 100 µM (inactive)	> 100 µM (inactive)
O=C(NCc1ccccc1Cl)c1c(O)c2ccccc2[nH]c1=O	16.8 µM (inactive)	77.8 µM (inactive)	22.7 µM (inactive)	19.1 µM (inactive)	27.9 µM (inactive)	54.5 µM (inactive)	24.6 µM (inactive)	> 100 µM (inactive)	> 100 µM (inactive)	> 100 µM (inactive)	32 µM (inactive)	21.2 µM (inactive)	33.4 µM (inactive)		46.8 µM (inactive)	39.4 µM (inactive)	> 100 µM (inactive)		34.9 µM (inactive)
O=C(CN1CCN(c2ccccc2)CC1)c1ccc2[nH]c(=O)oc2c1	> 100 µM (inactive)		> 100 µM (inactive)	> 100 µM (inactive)		> 100 µM (inactive)	> 100 µM (inactive)	> 100 µM (inactive)	> 100 µM (inactive)		> 100 µM (inactive)	> 100 µM (inactive)	> 100 µM (inactive)	> 100 µM (inactive)			> 100 µM (inactive)	> 100 µM (inactive)	> 100 µM (inactive)
COC(=O)c1c(O)ccc2c1C1(Cc3ccccc3C1=O)C(O)O2 (stereo not drawn)	14.1 µM (inactive)	20.6 µM (inactive)	16.1 µM (inactive)	13.8 µM (inactive)	16.6 µM (inactive)	43.2 µM (inactive)	1.94 µM (inactive)	25.4 µM (inactive)	33.2 µM (inactive)	3.86 µM (inactive)	18.6 µM (inactive)	51.5 µM (inactive)	42.3 µM (inactive)	28.3 µM (inactive)	34.3 µM (inactive)	43.4 µM (inactive)	> 100 µM (inactive)		5.09 µM (inactive)
CCOC(=N)n1c(=O)n(C2=NCCN2)c2ccccc21	> 100 µM (inactive)	> 100 µM (inactive)	> 100 µM (inactive)	> 100 µM (inactive)	> 100 µM (inactive)	> 100 µM (inactive)	> 100 µM (inactive)	> 100 µM (inactive)	> 100 µM (inactive)	> 100 µM (inactive)	> 100 µM (inactive)	> 100 µM (inactive)	> 100 µM (inactive)			> 100 µM (inactive)	> 100 µM (inactive)	> 100 µM (inactive)	> 100 µM (inactive)
Nc1n[nH]c2c(C(=O)Nc3ccc(Cl)cc3)c(N)n(N)c(=O)c12	> 100 µM (inactive)	> 100 µM (inactive)	> 100 µM (inactive)			> 100 µM (inactive)	> 100 µM (inactive)	> 100 µM (inactive)	> 100 µM (inactive)	> 100 µM (inactive)	> 100 µM (inactive)	> 100 µM (inactive)		> 100 µM (inactive)	> 100 µM (inactive)	> 100 µM (inactive)	> 100 µM (inactive)	> 100 µM (inactive)	> 100 µM (inactive)
N#CCCOc1cccc(C2(N3CCCCC3)CCCCC2)c1	> 100 µM (inactive)	> 100 µM (inactive)	> 100 µM (inactive)	> 100 µM (inactive)		> 100 µM (inactive)	> 100 µM (inactive)	> 100 µM (inactive)	> 100 µM (inactive)	> 100 µM (inactive)	> 100 µM (inactive)		> 100 µM (inactive)	> 100 µM (inactive)	> 100 µM (inactive)	> 100 µM (inactive)	> 100 µM (inactive)	> 100 µM (inactive)	> 100 µM (inactive)
CC(=O)OCC1OC(Nc2ccc3nc(C)n(-c4ccccc4)c(=O)c3c2)C(OC(C)=O)C(OC(C)=O)C1OC(C)=O (stereo not drawn)	> 50 µM (inactive)		> 50 µM (inactive)	> 50 µM (inactive)		> 50 µM (inactive)	> 50 µM (inactive)	> 50 µM (inactive)	> 50 µM (inactive)	> 50 µM (inactive)	> 50 µM (inactive)	> 50 µM (inactive)	> 50 µM (inactive)	> 50 µM (inactive)	> 50 µM (inactive)	> 50 µM (inactive)	> 50 µM (inactive)	41.3 µM (inactive)	> 50 µM (inactive)
O=C(c1c(F)c(F)c(F)c(F)c1F)n1c(=S)n(C(=O)c2c(F)c(F)c(F)c(F)c2F)c2ccccc21	> 100 µM (inactive)			> 100 µM (inactive)	> 100 µM (inactive)	> 100 µM (inactive)	> 100 µM (inactive)	> 100 µM (inactive)					> 100 µM (inactive)	> 100 µM (inactive)	> 100 µM (inactive)	> 100 µM (inactive)	> 100 µM (inactive)	24.7 µM (inactive)	> 100 µM (inactive)
CC(=O)C(=[N+]=[N-])C(=O)OCCOC(=O)C(=[N+]=[N-])C(C)=O	> 1 µM (active)	> 1 µM (active)		> 1 µM (active)	> 1 µM (active)	> 1 µM (active)	> 1 µM (active)	> 1 µM (active)	> 1 µM (active)		> 1 µM (active)	> 1 µM (active)	> 1 µM (active)	> 1 µM (active)	> 1 µM (active)	> 1 µM (active)	> 1 µM (active)	> 1 µM (active)	> 1 µM (active)
NCCSc1nc2ccccc2c(=O)n1-c1ccccc1	51.1 µM (inactive)	43.7 µM (inactive)	90.6 µM (inactive)	61.7 µM (inactive)	10.3 µM (inactive)	49.7 µM (inactive)	44.7 µM (inactive)	41.7 µM (inactive)	50.2 µM (inactive)	30.8 µM (inactive)	> 100 µM (inactive)		28.2 µM (inactive)	67 µM (inactive)	74.3 µM (inactive)	0.236 µM (active)	77.1 µM (inactive)	26.4 µM (inactive)	27.2 µM (inactive)
COc1ccc2c(c1)N=C(N)n1c(nc3ccccc31)S2	1.95 µM (inactive)	30 µM (inactive)		57.8 µM (inactive)	11.7 µM (inactive)	3.96 µM (inactive)	16.1 µM (inactive)	15.5 µM (inactive)	10.4 µM (inactive)	12.2 µM (inactive)	22.2 µM (inactive)	19.5 µM (inactive)	38.5 µM (inactive)	7.98 µM (inactive)	7.29 µM (inactive)	82 µM (inactive)	11.8 µM (inactive)	16.3 µM (inactive)	27.1 µM (inactive)
C=CCOn1c(C=C)nc2ccc(C)cc21	14 µM (inactive)	22.7 µM (inactive)	20.4 µM (inactive)	17.9 µM (inactive)	34.9 µM (inactive)	14.1 µM (inactive)	26.2 µM (inactive)	17.3 µM (inactive)	19.8 µM (inactive)	15.5 µM (inactive)	16 µM (inactive)		25.6 µM (inactive)	15.5 µM (inactive)	17.5 µM (inactive)	17.9 µM (inactive)	13.7 µM (inactive)	13.6 µM (inactive)	19.7 µM (inactive)
BC(=O)NC(CC(C)C)C(=O)NC1c2ccsc2C(=O)C1O.CN(C)C (stereo not drawn)	> 100 µM (inactive)	> 100 µM (inactive)		> 100 µM (inactive)		> 100 µM (inactive)	> 100 µM (inactive)	> 100 µM (inactive)	> 100 µM (inactive)	> 100 µM (inactive)		> 100 µM (inactive)	> 100 µM (inactive)	> 100 µM (inactive)	> 100 µM (inactive)	> 100 µM (inactive)	> 100 µM (inactive)	> 100 µM (inactive)	> 100 µM (inactive)
